ChEMBL document CHEMBL4840358, “Discovery of Modified Amidate (ProTide) Prodrugs of Tenofovir with Enhanced Antiviral Properties” (J Med Chem, 2021)
pEC50: −log10 of the molar value. ≈ marks a conversion by molar mass, not a printed value. Where a name gives a salt, the structure may show the parent alone.

Tests used:
[1] = Selectivity index, ratio of CC50 for human MT-4 cells to EC50 for HIV-1 infected in MT-4 cells; type: toxicity, cell-based; conditions: read-out: Ratio CC50/EC50
[2] = tested on: Human immunodeficiency virus 1; test: Antiviral activity against HIV-1 infected in MT4 cells assessed as reduction in virus-induced cytopathic effect preincubated for 1 hr followed by viral infection and measured after 5 days by XTT assay; type: functional, organism-based; conditions: Human immunodeficiency virus 1, MT4
[3] = Cytotoxicity against in human MT4 cells after 5 days by XTT assay; type: cell-based; conditions: time 5 day
[4] = Solubility of compound in water at 25 uM after 24 hrs by HPLC analysis; type: physicochemical
[5] = tested on: Human immunodeficiency virus 1; test: Antiviral activity against HIV-1; type: functional, organism-based
[6] = target: T1, Lysosomal protective protein (Homo sapiens) (UniProt P10619); test: Substrate activity at cathepsin A (unknown origin) at 30 uM after 30 mins
T1 sequence (whole entry): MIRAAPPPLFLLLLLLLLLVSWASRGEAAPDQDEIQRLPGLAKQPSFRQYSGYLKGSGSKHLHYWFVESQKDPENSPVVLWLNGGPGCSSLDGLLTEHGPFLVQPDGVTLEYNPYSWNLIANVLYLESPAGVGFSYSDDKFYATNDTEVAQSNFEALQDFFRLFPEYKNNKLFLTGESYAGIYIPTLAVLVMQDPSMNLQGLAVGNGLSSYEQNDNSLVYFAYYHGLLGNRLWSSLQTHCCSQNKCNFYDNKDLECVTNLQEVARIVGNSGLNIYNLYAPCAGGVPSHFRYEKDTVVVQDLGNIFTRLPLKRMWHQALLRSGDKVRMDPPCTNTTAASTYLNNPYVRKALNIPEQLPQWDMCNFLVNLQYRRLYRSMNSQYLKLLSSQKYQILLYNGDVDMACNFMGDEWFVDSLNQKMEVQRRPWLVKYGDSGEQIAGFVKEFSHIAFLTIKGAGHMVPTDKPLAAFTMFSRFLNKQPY

[7] = Stability of compound in pooled human plasma assessed as half life at 5 uM measured for 120 to 240 mins by ECHO-MS analysis; type: ADME, cell-free; conditions: time 120-240 min
[8] = Drug uptake in human CCRF-CEM cells assessed as intracellular intact prodrug level at 50 uM after 45 mins by ECHO-MS analysis; type: ADME, cell-based; conditions: 0.75 h
[9] = Stability of compound in pooled human plasma assessed as compound remaining at 5 uM measured for 120 to 240 mins by ECHO-MS analysis; type: ADME, cell-free; conditions: time 120-240 min, read-out: Stability
[10] = Stability of compound in pooled human hepatic microsomes assessed as compound remaining at 5 uM measured upto 30 mins in presence of NADPH by ECHO-MS analysis; type: ADME, Microsome; conditions: pooled liver microsomes, read-out: Stability
[11] = Drug uptake in human CCRF-CEM cells assessed as released tenofovir level at 50 uM after 45 mins by ECHO-MS analysis; type: ADME, cell-based; conditions: 0.75 h
[12] = Cytotoxicity against human HepG2-hNTCP cells incubated for 3 days by XTT assay; type: cell-based; conditions: time 3 day
[13] = tested on: Hepatitis B virus; test: Antiviral activity against HBV infected in human HepG2-hNTCP cells assessed as reduction in HBV DNA incubated for day 1 followed by compound washout and fresh compound addition on following day and day 3, 6 and 10 measured on day 14 post infection by qPCR analysis; type: functional, organism-based
[14] = Drug metabolism in human liver microsomes assessed as formation of metabolite 1; type: ADME, Microsome
[15] = Chemical stability of compound in pH 10 NaOH-glycin buffer at 25 uM after 24 hrs by HPLC analysis; type: physicochemical; conditions: pH 10, 24 h
[16] = Chemical stability of compound in pH 1.5 NaCl-HCl buffer at 25 uM after 24 hrs by HPLC analysis; type: physicochemical; conditions: pH 1.5, 24 h
[17] = Chemical stability of compound in pH 4.5 citrate buffer at 25 uM after 24 hrs by HPLC analysis; type: physicochemical; conditions: pH 4.5, 24 h

SMILES | selectivity ratio [1] | pEC50 [2] | CC50 at 120 h [3] [nM] | Activity [6] [pmol/min/mg] | Drug uptake [8] [pmol] | remaining at 5 µM [9] [%] | remaining at 0.5 h, 5 µM [10] [%] | Drug uptake [11] [pmol] | CC50 at 72 h [12] [nM] | pEC50 [13] | further results
CC(C)CCOC(=O)[C@H](Cc1ccc(O[P@@](=O)(CO[C@H](C)Cn2cnc3c(N)ncnc32)N[C@@H](C)C(=O)OC(C)C)cc1)NC(=O)OCc1ccccc1 | 14300 | 9.25 | 8000 | – | – | – | – | – | – | – | –
CC(C)OC(=O)[C@H](C)N[P@](=O)(CO[C@H](C)Cn1cnc2c(N)ncnc21)Oc1ccc(C[C@H](NC(=O)OCc2ccccc2)C(=O)OC2CCCC2)cc1.Cl | – | – | – | – | – | – | – | – | – | – | solubility at 24 h, 25 µM [4]: 210 µM
CC(C)OC(=O)[C@H](C)N[P@](=O)(CO[C@H](C)Cn1cnc2c(N)ncnc21)Oc1ccc(C[C@H](NC(=O)OCc2ccccc2)C(=O)OC2CCCC2)cc1.O=C(O)/C=C/C(=O)O | – | – | – | – | – | – | – | – | – | – | solubility at 24 h, 25 µM [4]: 104 µM
CC(C)OC(=O)OCOP(=O)(CO[C@H](C)Cn1cnc2c(N)ncnc21)OCOC(=O)OC(C)C [TENOFOVIR DISOPROXIL FUMARATE] | 656 | – | – | – | – | – | – | – | – | – | pEC50 [5]: 7.30
CC(C)OC(=O)[C@H](C)N[P@](=O)(CO[C@H](C)Cn1cnc2c(N)ncnc21)Oc1ccc(C[C@H](NC(=O)OCc2ccccc2)C(=O)OC2CCCC2)cc1 [listing 1 of 2 here] | – | – | – | 33.6 | – | – | – | – | – | – | –
C[C@H](Cn1cnc2c(N)ncnc21)OCP(=O)(O)O [TENOFOVIR ANHYDROUS] | 36 | – | – | – | – | – | – | – | – | – | pEC50 [5]: 5.30
CC(C)OC(=O)[C@H](C)N[P@@](=O)(CO[C@H](C)Cn1cnc2c(N)ncnc21)Oc1ccc(C[C@H](NC(=O)OCc2ccccc2)C(=O)OC2CCCC2)cc1 | – | 7.80 | 17000 | 35.9 | 0.22 | 56 | 0.01 | 20.25 | – | – | half-life at 5 µM [7]: 4.62 h
CC(C)OC(=O)[C@H](C)N[P@](=O)(CO[C@H](C)Cn1cnc2c(N)ncnc21)Oc1ccc(C[C@H](NC(=O)OCc2ccccc2)C(=O)CC2CCCC2)cc1 | 1.53e+06 | 11.22 | 9200 | 39.7 | 102.36 | 88 | 0.04 | 148.09 | > 50000 | 8.55 | –
CC(C)OC(=O)[C@H](C)N[P@](=O)(CO[C@H](C)Cn1cnc2c(N)ncnc21)Oc1ccc(C[C@H](NCCCc2ccccc2)C(=O)CC2CCCC2)cc1 | 800000 | 10.22 | 48000 | 16.3 | 11.37 | 77 | 1 | 304.5 | – | – | –
CC(C)OC(=O)[C@H](C)N[P@](=O)(CO[C@H](C)Cn1cnc2c(N)ncnc21)Oc1ccc(C[C@H](NC(=O)OCc2ccccc2)C(=O)OC(C)C)cc1 | 16700 | 9.22 | 10000 | – | – | – | – | – | – | – | –
CC(C)OC(=O)[C@H](C)N[P@@](=O)(CO[C@H](C)Cn1cnc2c(N)ncnc21)Oc1ccc(C[C@H](NC(=O)CCc2ccccc2)C(=O)OC2CCCC2)cc1 | – | 9.44 | 11000 | 29.5 | 0.12 | – | – | 27.89 | > 50000 | 8.85 | –
CC(C)OC(=O)[C@H](C)N[P@](=O)(CO[C@H](C)Cn1cnc2c(N)ncnc21)Oc1ccccc1.CC(C)OC(=O)[C@H](C)N[P@](=O)(CO[C@H](C)Cn1cnc2c(N)ncnc21)Oc1ccccc1.O=C(O)/C=C/C(=O)O [TENOFOVIR ALAFENAMIDE FUMARATE] | 5470 | 8.19 | 35000 | 25.8 | 0.3 | 44 | 70 | 21.19 | > 50000 | 8.28 | half-life at 5 µM [7]: 3.45 h; solubility at 24 h, 25 µM [4]: > 1000 µM; pEC50 [5]: 8.30
CC(C)OC(=O)[C@H](C)N[P@@](=O)(CO[C@H](C)Cn1cnc2c(N)ncnc21)Oc1ccc(C[C@H](NC(=O)OCc2ccccc2)C(=O)CC2CCCC2)cc1 | – | 9.82 | 7600 | 30.3 | 248 | – | – | 78.88 | > 50000 | 8.47 | –
CC(C)OC(=O)[C@H](C)N[P@](=O)(CO[C@H](C)Cn1cnc2c(N)ncnc21)Oc1ccc(C[C@H](NC(=O)CCc2ccccc2)C(=O)OC2CCCC2)cc1 | 880000 | 11.00 | 8800 | 26 | 0.37 | 76 | 0.01 | 64.26 | > 50000 | 8.36 | –
CC(C)OC(=O)[C@H](C)N[P@](=O)(CO[C@H](C)Cn1cnc2c(N)ncnc21)Oc1ccc(C[C@H](NCCCc2ccccc2)C(=O)OC2CCCC2)cc1 | 21400 | 9.55 | 6000 | – | – | – | – | – | > 50000 | 7.72 | –
COC(=O)[C@H](Cc1ccc(O[P@](=O)(CO[C@H](C)Cn2cnc3c(N)ncnc32)N[C@@H](C)C(=O)OC(C)C)cc1)NC(C)=O | – | 5.66 | > 50000 | – | – | – | – | – | > 50000 | 8.14 | –
CC(C)OC(=O)[C@H](C)N[P@@](=O)(CO[C@H](C)Cn1cnc2c(N)ncnc21)Oc1ccc(C[C@@H](NC(=O)OCc2ccccc2)C(=O)OC2CCCC2)cc1 | 45500 | 9.48 | 15000 | – | – | – | – | – | – | – | –
CC(C)OC(=O)[C@H](C)N[P@](=O)(CO[C@H](C)Cn1cnc2c(N)ncnc21)Oc1ccc(C[C@H](NC(=O)OCc2ccccc2)C(=O)NC2CCCC2)cc1 | 2150 | 7.89 | 28000 | – | – | – | – | – | – | – | –
CC(C)OC(=O)[C@H](C)N[P@](=O)(CO[C@H](C)Cn1cnc2c(N)ncnc21)Oc1ccc(C[C@H](NC(=O)OCc2ccccc2)C(=O)OC2CCCC2)cc1 [listing 2 of 2 here] | 143000 | 10.15 | 10000 | – | 0.19 | 75 | 0.01 | 73.7 | – | – | half-life at 5 µM [7]: 9.63 h; Drug metabolism [14]: Metabolite_Detected; Stability [15]: Unstable; Stability [16]: Unstable; Stability [17]: Stable; solubility at 24 h, 25 µM [4]: 53.5 µM (≈ 41 µg/mL)
